Experimental data from US20140342913A1, “GENES PROVIDING TOLERANCE TO PDS INHIBITORS” (SYNGENTA PARTICIPATIONS AG, priority 2013, published 2014).

Tested on: 18900 transformants (soybean plants)
Assay: Herbicide resistance of soybean transformants with stacked ADSS Q289N gene
Format: in vivo
Conditions: soybean transformed with 18900 (Rhodobacter CrtI + Arabidopsis ADSS Q289N)
From the text: In order to test expression of stacked genes when phytoene desaturease is used as selectable marker, we constructed several vectors with Anemonia majano cyan fluorescent protein gene AmCyan and herbicide resistance (ADSS) or detoxification (cytochrome P450) genes as examples. Binary transformation vector 18340 (FIG. 7) contains Gloeobacter CrtI expression cassette linked to an AmCyan expression cassette. 18340 was derived from insertion of prCMP-AmCyan-tNOS cassette into 18239. Similarly, binary transformation vector 18341 (FIG. 8) contains Rhodobacter CrtI and AmCyan expression cassettes and was constructed by inserting the prCMP-AmCyan-tNOS cassette into 18238. 18900 (FIG. 9) is a binary vector containing Rhodobacter CrtI expression cassette linked with an Arabidopsis adenylosuccinate synthase (ADSS) Q289N mutant expression cassette under the control of prCMP promoter. 18932 (FIG. 10) is a binary vector containing Rhodobacter CrtI expression cassette and an expression cassette for rice cytochrome P450 monooxygenase gene (Genbank accession # OSJNBb0048A17.18) under the control of prCMP promoter. […]
Binary vectors 18340, […], 18900 and 18932 were transformed into soybean plants using norfurazon as selection agent. […] 18932 transformants were evaluated for their resistance against HPPD herbicide mesotrione.

O=C1NC(=O)[C@]2(N1)O[C@H](CO)[C@@H](O)[C@H]2O [hydantocidin]
resistance of transformants to herbicidal compound: resistant
